# From patent publication US20150087673A1, “METHODS FOR USING AND BIOMARKERS FOR AMPK-ACTIVATING COMPOUNDS” (RIGEL PHARMACEUTICALS, INC., priority 2013, published 2015)
# System: AMPK
# Assay: AMPK activation assay (enzyme-linked immunosorbent assay)
# Type: cell-based
# How it was run: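 Activation by each compound is measured using a conventional commercial immunoassay kit.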
row,SMILES,EC50 [µM]
1,"N#Cc1ccc(OC2CCN(C(=O)c3ccc(C(=O)NC4CCN(Cc5ccc(N6CCCC6)cc5)CC4)cn3)CC2)cc1 [Compound 336, 6-(4-(4-cyanophenoxy)piperidine-1-carbonyl)-N-(1-(4-(pyrrolidin-1-yl)benzyl)piperidin-4-yl)nicotinamide]",< 0.5
2,"N#Cc1ccc(OC2CCN(C(=O)c3ccc(C(=O)NC4CCN(Cc5ccc(N6CCOCC6)cc5)CC4)cn3)CC2)cc1 [Compound 337, 6-(4-(4-cyanophenoxy)piperidine-1-carbonyl)-N-(1-(4-morpholinobenzyl)piperidin-4-yl)nicotinamide]",< 0.5
3,"N#Cc1ccc(OC2CCN(C(=O)c3ccc(C(=O)NC4CCN(Cc5ccc(OC(F)(F)F)cc5)CC4)cn3)CC2)cc1 [Compound 338, 6-(4-(4-cyanophenoxy)piperidine-1-carbonyl)-N-(1-(4-(trifluoromethoxy)benzyl)piperidin-4-yl)nicotinamide]",< 0.5
4,"N#Cc1ccc(CN2CCC(NC(=O)c3ccc(C(=O)N4CCN(c5ccc(C(F)(F)F)cc5)CC4)cn3)CC2)cc1 [Compound 339, N-(1-(4-cyanobenzyl)piperidin-4-yl)-5-(4-(4-(trifluoromethyl)phenyl)piperazine-1-carbonyl)picolinamide]",< 0.5
5,"N#Cc1ccc(CN2CCC(NC(=O)c3ccc(C(=O)N4CCN(c5ccc(C#N)cc5)CC4)cn3)CC2)cc1 [Compound 340, N-(1-(4-cyanobenzyl)piperidin-4-yl)-5-(4-(4-cyanophenyl)piperazine-1-carbonyl)picolinamide]",< 0.5
6,"N#Cc1ccc(CN2CCC(NC(=O)c3ccc(N4CCC(Oc5ccc(C#N)cc5)CC4)nn3)CC2)cc1 [Compound 351, N-(1-(4-cyanobenzyl)piperidin-4-yl)-6-(4-(4-cyanophenoxy)piperidin-1-yl) pyridazine-3-carboxamide]",< 0.5
7,"N#Cc1ccc(OC2CCN(C(=O)c3ccc(C(=O)NC4CCN(Cc5cocn5)CC4)cn3)CC2)cc1 [Compound 355, 6-(4-(4-cyanophenoxy)piperidine-1-carbonyl)-N-(1-(oxazol-4-ylmethyl)piperidin-4-yl)nicotinamide]",> 10
8,"N#Cc1ccc(OC2CCN(C(=O)c3ccc(C(=O)NC4CCN(Cc5nccs5)CC4)cn3)CC2)cc1 [Compound 356, 6-(4-(4-cyanophenoxy)piperidine-1-carbonyl)-N-(1-(thiazol-2-ylmethyl)piperidin-4-yl)nicotinamide]",< 0.5
9,"N#Cc1ccc(CN2CCC(NC(=O)c3ccc(N4CCC(Oc5ccc(C(F)(F)F)cc5)CC4)nn3)CC2)cc1 [Compound 361, N-(1-(4-cyanobenzyl)piperidin-4-yl)-6-(4-(4-(trifluoromethyl)phenoxy)piperidin-1-yl)pyridazine-3-carboxamide]",< 0.5
10,"COc1ccc(C(=O)C2CCN(c3ccc(C(=O)NC4CCN(Cc5ccc(C#N)cc5)CC4)nn3)CC2)cc1 [Compound 362, N-(1-(4-cyanobenzyl)piperidin-4-yl)-6-(4-(4-methoxybenzoyl)piperidin-1-yl)pyridazine-3-carboxamide]",< 0.5
11,"N#Cc1ccc(CN2CCC(NC(=O)c3ccc(C(=O)N4CCC(Oc5ccc([N+](=O)[O-])cc5)CC4)nc3)CC2)cc1 [Compound 363, N-(1-(4-cyanobenzyl)piperidin-4-yl)-6-(4-(4-nitrophenoxy)piperidine-1-carbonyl)nicotinamide]",< 0.5
12,"N#Cc1ccc(CN2CCC(NC(=O)c3ccc(C(=O)N4CCC(Oc5ccc(N)cc5)CC4)nc3)CC2)cc1 [Compound 364, 6-(4-(4-aminophenoxy)piperidine-1-carbonyl)-N-(1-(4-cyanobenzyl)piperidin-4-yl)nicotinamide]",< 0.5
13,"CS(=O)(=O)Nc1ccc(OC2CCN(C(=O)c3ccc(C(=O)NC4CCN(Cc5ccc(C#N)cc5)CC4)cn3)CC2)cc1 [Compound 367, N-(1-(4-cyanobenzyl)piperidin-4-yl)-6-(4-(4-(methylsulfonamido)phenoxy)piperidine-1-carbonyl)nicotinamide]",> 10
14,"CN(C)c1ccc(OC2CCN(C(=O)c3ccc(C(=O)NC4CCN(Cc5ccc(C#N)cc5)CC4)cn3)CC2)cc1 [Compound 370, N-(1-(4-cyanobenzyl)piperidin-4-yl)-6-(4-(4-(dimethylamino)phenoxy)piperidine-1-carbonyl)nicotinamide]",< 0.5
15,"N#Cc1ccc(CN2CCC(NC(=O)c3ccc(C(=O)N4CCC(Oc5ccc(NC(=O)CCOCCOCCOCCOCCNC(=O)CCC[C@@H]6SC[C@@H]7NC(=O)N[C@@H]76)cc5)CC4)nc3)CC2)cc1 [Compound 371, N-(1-(4-cyanobenzyl)piperidin-4-yl)-6-(4-(4-(17-oxo-20-((3aS,4S,6aR)-2-oxohexahydro-1H-thieno[3,4-d]imidazol-4-yl)-4,7,10,13-tetraoxa-16-azaicosanamido)phenoxy)piperidine-1-carbonyl)nicotinamide]",> 10

# The remaining lines, values ahead:
row,EC50 [µM],SMILES
1,< 0.5,"N#Cc1ccc(CN2CCC(NC(=O)c3ccc(C(=O)N4CCN(c5ccc(F)cc5)CC4)cn3)CC2)cc1 [Compound 341, N-(1-(4-cyanobenzyl)piperidin-4-yl)-5-(4-(4-fluorophenyl)piperazine-1-carbonyl)picolinamide]"
2,< 0.5,"O=C(Nc1ccc(Oc2ccc(F)cc2)nc1)c1ccc(C(=O)N2CCC(C(=O)c3ccc(F)cc3F)CC2)cn1 [Compound 342, 5-(4-(2,4-difluorobenzoyl)piperidine-1-carbonyl)-N-(6-(4-fluorophenoxy)pyridin-3-yl)picolinamide]"
3,< 0.5,"O=C(Nc1ccc(Oc2ccc(F)cc2)nc1)c1ccc(C(=O)N2CCC(Oc3ccc(F)cc3F)CC2)nc1 [Compound 343, 6-(4-(2,4-difluorophenoxy)piperidine-1-carbonyl)-N-(6-(4-fluorophenoxy)pyridin-3-yl)nicotinamide]"
4,< 0.5,"COc1ccc(CN2CCC(NC(=O)c3ccc(C(=O)N4CCC(Oc5ccc(F)cc5F)CC4)nc3)CC2)cc1 [Compound 344, 6-(4-(2,4-difluorophenoxy)piperidine-1-carbonyl)-N-(1-(4-methoxybenzyl)piperidin-4-yl)nicotinamide]"
5,< 0.5,"N#Cc1ccc(CN2CCC(NC(=O)c3ccc(C(=O)N4CCC(Oc5ccc(F)cc5F)CC4)nc3)CC2)cc1 [Compound 345, N-(1-(4-cyanobenzyl)piperidin-4-yl)-6-(4-(2,4-difluorophenoxy)piperidine-1-carbonyl)nicotinamide]"
6,< 0.5,"N#Cc1ccc(CN2CCC(NC(=O)c3ccc(C(=O)N4CCC(C(=O)c5ccc(F)cc5F)CC4)nc3)CC2)cc1 [Compound 346, N-(1-(4-cyanobenzyl)piperidin-4-yl)-6-(4-(2,4-difluorobenzoyl)piperidine-1-carbonyl)nicotinamide]"
7,< 0.5,"COc1ccc(CN2CCC(NC(=O)c3ccc(C(=O)N4CCC(C(=O)c5ccc(F)cc5F)CC4)nc3)CC2)cc1 [Compound 347, 6-(4-(2,4-difluorobenzoyl)piperidine-1-carbonyl)-N-(1-(4-methoxybenzyl)piperidin-4-yl)nicotinamide]"
8,< 0.5,"O=C(Nc1ccc(Oc2ccc(F)cc2)nc1)c1ccc(C(=O)N2CCC(C(=O)c3ccc(F)cc3F)CC2)nc1 [Compound 348, 6-(4-(2,4-difluorobenzoyl)piperidine-1-carbonyl)-N-(6-(4-fluorophenoxy)pyridin-3-yl)nicotinamide]"
9,< 0.5,"CN(C)C(=O)c1ccc(OC2CCN(C(=O)c3ccc(C(=O)NC4CCN(Cc5ccc(C#N)cc5)CC4)nc3)CC2)cc1 [Compound 357, N-(1-(4-cyanobenzyl)piperidin-4-yl)-5-(4-(4-(dimethylcarbamoyl)phenoxy)piperidine-1-carbonyl)picolinamide]"
10,< 0.5,"CC(=O)c1ccc(OC2CCN(C(=O)c3ccc(C(=O)NC4CCN(Cc5ccc(C#N)cc5)CC4)nc3)CC2)cc1 [Compound 358, 5-(4-(4-acetylphenoxy)piperidine-1-carbonyl)-N-(1-(4-cyanobenzyl)piperidin-4-yl)picolinamide]"
11,< 0.5,"CC(=O)c1ccc(OC2CCN(C(=O)c3ccc(C(=O)Nc4ccc(Oc5ccc(F)cc5)nc4)nc3)CC2)cc1 [Compound 359, 5-(4-(4-acetylphenoxy)piperidine-1-carbonyl)-N-(6-(4-fluorophenoxy)pyridin-3-yl)picolinamide]"
12,< 0.5,"CN(C)C(=O)c1ccc(OC2CCN(C(=O)c3ccc(C(=O)Nc4ccc(Oc5ccc(F)cc5)nc4)nc3)CC2)cc1 [Compound 360, 5-(4-(4-(dimethylcarbamoyl)phenoxy)piperidine-1-carbonyl)-N-(6-(4-fluorophenoxy)pyridin-3-yl)picolinamide]"
13,< 0.5,"N#Cc1ccc(CN2CCC(NC(=O)c3ccc(C(=O)N4CCC(C(=O)c5ccc(N6CCCC6)cc5)CC4)cn3)CC2)cc1 [Compound 365, N-(1-(4-cyanobenzyl)piperidin-4-yl)-5-(4-(4-(pyrrolidin-1-yl)benzoyl)piperidine-1-carbonyl)picolinamide]"
14,< 0.5,"CC(=O)Nc1ccc(OC2CCN(C(=O)c3ccc(C(=O)NC4CCN(Cc5ccc(C#N)cc5)CC4)cn3)CC2)cc1 [Compound 366, 6-(4-(4-acetamidophenoxy)piperidine-1-carbonyl)-N-(1-(4-cyanobenzyl)piperidin-4-yl)nicotinamide]"
15,< 0.5,"O=C(Nc1ccc(Oc2ccc(F)cc2)nc1)c1ccc(C(=O)N2CCC(C(=O)c3ccc(N4CCCC4)cc3)CC2)cn1 [Compound 368, N-(6-(4-fluorophenoxy)pyridin-3-yl)-5-(4-(4-(pyrrolidin-1-yl)benzoyl)piperidine-1-carbonyl)picolinamide]"
16,< 0.5,"N#Cc1ccc(CN2CCC(NC(=O)c3ccc(C(=O)N4CCC(C(=O)c5ccc(C#N)cc5)CC4)cn3)CC2)cc1 [Compound 369, 5-(4-(4-cyanobenzoyl)piperidine-1-carbonyl)-N-(1-(4-cyanobenzyl)piperidin-4-yl)picolinamide]"
17,< 0.5,"CSc1ccc(C(=O)C2CCN(C(=O)c3ccc(C(=O)NC4CCN(Cc5ccc(C#N)cc5)CC4)nc3)CC2)cc1 [Compound 372, N-(1-(4-cyanobenzyl)piperidin-4-yl)-5-(4-(4-(methylthio)benzoyl)piperidine-1-carbonyl)picolinamide]"
18,< 0.5,"COc1ccc(C(=O)C2CCN(C(=O)c3ccc(C(=O)NC4CCN(Cc5ccc([N+](=O)[O-])cc5)CC4)cn3)CC2)cc1 [Compound 373, 6-(4-(4-methoxybenzoyl)piperidine-1-carbonyl)-N-(1-(4-nitrobenzyl)piperidin-4-yl)nicotinamide]"
